What was measured:
[1] = molecular target: T1, human P2X7 (Homo sapiens (Human), UniProt Q99572); assay: P2X7 antagonism in human PBMCs (IL-1β release after LPS + Bz-ATP, ELISA); assay type: cell-based
[2] = molecular target: T1, human P2X7; assay: P2X7 antagonism in human whole blood (IL-1β release after LPS + Bz-ATP, ELISA); assay type: cell-based; details: LPS 30 ng/ml + 1 mM Bz-ATP
Method: P2X7 Antagonism in Human Peripheral Blood Mononuclear Cells (PBMCs) and Human Whole Blood.
Human blood was collected using a blood donor program. PBMCs were isolated from blood using a Ficoll density gradient technique. Briefly, blood was laid on Ficoll solution and centrifuged at RT for 20 minutes at 2000 rpm. The buffy layer (between red blood cells and plasma) was carefully collected by aspiration, washed with PBS and centrifuged again at 1500 rpm for 15 minutes. The resulting cell pellet was washed and plated on 96 well-plates for experiments. For the Human Whole Blood experiments, 150 μl of human blood was platted on 96 well-plates. Lipopolysaccharide (LPS) (30 ng/ml) was added to each well and incubated for 1 hour. Test compounds were then added and incubated for 30 minutes. The P2X7 agonist, 2′(3′)-O-(4-benzoylbenzoyl) adenosine 5′ triphosphate (Bz-ATP) was then added at a final concentration of 0.5 mM (PBMC) or 1 mM (blood). Cells were incubated for an additional 1.5 hours. At that point, supernatant was collected and stored for IL-1β assay using manufacturer's protocol for enzyme-linked immunosorbent assay (ELISA). Data was expressed as percent control, where control is defined as the difference in IL-1β release in LPS+Bz-ATP samples and LPS only samples. […] Data are analyzed and graphed on Graphpad Prism 5. […]

[3] = molecular target: T1, human P2X7; assay: Ca2+ flux (FLIPR) in 1321N1 cells expressing recombinant human P2X7; assay type: cell-based;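 further: cells loaded with Calcium-4 dye, preincubated with test compound for 30 min, fluorescence change read 180 s after agonist addition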
[4] = molecular target: T2, rat P2X7 (Rattus norvegicus (Rat), UniProt Q64663); assay: Ca2+ flux (FLIPR) in 1321N1 cells expressing recombinant rat P2X7; assay type: cell-based;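 further: Calcium-4 dye fluorescence change read 180 s after agonist addition, with cells preincubated 30 min with compound and dye in 96-well plates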
[5] = molecular target: T2, rat P2X7; assay: Radioligand binding ([3H]A-804598), rat P2X7-1321N1 cell membranes; details: rat P2X7-1321N1 membranes, tritiated A-804598
Method: (§1) human or rat P2X7-1321N1 cells were collected and frozen @−80° C. On the day of the experiment, cell membrane preparations were made according to standard published methods. […] The assay was terminated by filtration (GF/B filters pre-soaked with 0.3% PEI) and washed with washing buffer (Tris-HCl 50 mM). The IC50 generated in the binding assay was corrected for tracer concentration and affinity of the tracer to derive at the affinity (Ki) of the test compounds. […] For analysis, each concentration point is averaged from triplicate values and the averaged values are plotted on Graphpad Prism.

[6] = molecular target: T1, human P2X7; assay: Radioligand binding ([3H]A-804598), human P2X7-1321N1 cell membranes
Method: as §1

[7] = human PBMCs, test compound 10 μM
[8] = 1321N1 cells, recombinant human P2X7, 250 μM BzATP
[9] = 1321N1 cells, recombinant rat P2X7, 250 μM BzATP
[10] = Ca2+ flux, 250 μM BzATP, human P2X7 1321N1 cells
[11] = Ca2+ flux, 250 μM BzATP, rat P2X7 1321N1 cells
[12] = 10 μM test compound, human PBMCs, LPS + Bz-ATP
[13] = [3H]A-804598, human P2X7-1321N1 membranes

T2 sequence (Q64663 whole entry): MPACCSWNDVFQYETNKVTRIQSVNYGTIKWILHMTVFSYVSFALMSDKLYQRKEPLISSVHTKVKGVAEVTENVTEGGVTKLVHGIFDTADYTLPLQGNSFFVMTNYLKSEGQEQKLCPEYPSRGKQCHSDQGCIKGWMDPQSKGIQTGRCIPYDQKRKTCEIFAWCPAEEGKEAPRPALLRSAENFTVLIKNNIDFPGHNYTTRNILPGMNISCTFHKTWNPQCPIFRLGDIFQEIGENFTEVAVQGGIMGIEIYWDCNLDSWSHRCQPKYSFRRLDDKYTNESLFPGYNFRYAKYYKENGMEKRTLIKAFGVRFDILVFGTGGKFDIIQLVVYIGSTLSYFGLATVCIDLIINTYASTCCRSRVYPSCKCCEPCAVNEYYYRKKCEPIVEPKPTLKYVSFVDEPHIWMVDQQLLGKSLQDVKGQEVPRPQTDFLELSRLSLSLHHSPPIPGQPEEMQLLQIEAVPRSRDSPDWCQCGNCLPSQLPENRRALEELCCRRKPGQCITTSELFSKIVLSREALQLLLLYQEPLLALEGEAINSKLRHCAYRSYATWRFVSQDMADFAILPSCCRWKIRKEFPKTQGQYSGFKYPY
T1 sequence (Q99572 whole entry): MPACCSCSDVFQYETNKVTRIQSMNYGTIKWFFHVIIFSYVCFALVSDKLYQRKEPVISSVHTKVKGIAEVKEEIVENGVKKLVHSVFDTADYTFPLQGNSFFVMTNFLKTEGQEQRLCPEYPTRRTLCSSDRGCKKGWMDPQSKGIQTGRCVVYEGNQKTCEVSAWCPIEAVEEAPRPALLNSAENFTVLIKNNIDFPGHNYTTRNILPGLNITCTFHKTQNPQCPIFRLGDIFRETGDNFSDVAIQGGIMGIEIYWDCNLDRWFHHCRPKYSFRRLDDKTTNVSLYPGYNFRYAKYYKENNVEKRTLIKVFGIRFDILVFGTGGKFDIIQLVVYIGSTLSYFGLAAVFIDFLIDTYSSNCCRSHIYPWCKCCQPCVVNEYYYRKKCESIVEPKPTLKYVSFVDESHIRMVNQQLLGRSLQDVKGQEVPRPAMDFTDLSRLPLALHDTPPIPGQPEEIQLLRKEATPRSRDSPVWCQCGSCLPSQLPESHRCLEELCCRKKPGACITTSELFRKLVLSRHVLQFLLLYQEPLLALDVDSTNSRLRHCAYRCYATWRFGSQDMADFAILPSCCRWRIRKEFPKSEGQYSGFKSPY

Compound	PBMC 10 μM (% control) [1, 7] [% control]	IC50 [2] [nM]	IC50 [3, 8] [nM]	IC50 [4, 9] [nM]	Ki [5] [nM]	PBMC 10 μM (% control) ([1]; test compound 10 μM, LPS 30 ng/ml + 0.5 mM Bz-ATP)	Ki ([6]; human P2X7-1321N1 membranes, tritiated A-804598) [nM]	IC50 [3, 10] [nM]	IC50 [4, 11] [nM]	PBMC 10 μM (% control) [1, 12] [% control]	Ki [6, 13] [nM]
Cc1ccnc(-n2nnc3c2CCN(C(=O)c2cccc(C(F)(F)F)c2Cl)[C@@H]3C)n1 (single isomer, unassigned) [Example 235, (4R*)-(2-Chloro-3-(trifluoromethyl)phenyl)(4-methyl-1-(4-methylpyrimidin-2-yl)-6,7-dihydro-1H-[1,2,3]triazolo[4,5-c]pyridin-5(4H)-yl)methanone]	−3.7	17									
C[C@@H]1c2nnn(-c3ncccn3)c2CCN1C(=O)c1cccc(C(F)(F)F)c1F (single isomer, unassigned) [Example 271, (R*)-(2-fluoro-3-(trifluoromethyl)phenyl)(4-methyl-1-(pyrimidin-2-yl)-6,7-dihydro-1H-[1,2,3]triazolo[4,5-c]pyridin-5(4H)-yl)methanone]	14.3		1.7	20	1.6	−3.7					
Cc1cc(-n2nnc3c2CCN(C(=O)c2ccnc(C(F)(F)F)c2Cl)[C@@H]3C)ncc1F (single isomer, unassigned) [Example 371, (R*)-(3-chloro-2-(trifluoromethyl)pyridin-4-yl)(1-(5-fluoro-4-methylpyridin-2-yl)-4-methyl-6,7-dihydro-1H-[1,2,3]triazolo[4,5-c]pyridin-5(4H)-yl)methanone]	−2.3		4.3	42.5	47.3		17.6				

The remaining lines, values ahead:

PBMC 10 μM (% control) [1, 7] [% control]	IC50 [2] [nM]	IC50 [3, 8] [nM]	IC50 [4, 9] [nM]	Ki [5] [nM]	PBMC 10 μM (% control) ([1]; test compound 10 μM, LPS 30 ng/ml + 0.5 mM Bz-ATP)	Ki ([6]; human P2X7-1321N1 membranes, tritiated A-804598) [nM]	IC50 [3, 10] [nM]	IC50 [4, 11] [nM]	PBMC 10 μM (% control) [1, 12] [% control]	Ki [6, 13] [nM]	Compound
							43.5	432	3.1	47.9	CC1c2n[nH]c(-c3ccc(F)cc3)c2CCN1C(=O)c1cccc(C(F)(F)F)c1Cl (centres unmarked) [Example 434, (2-chloro-3-(trifluoromethyl)phenyl)(3-(4-fluorophenyl)-7-methyl-4,5-dihydro-2H-pyrazolo[3,4-c]pyridin-6(7H)-yl)methanone]
							240	14600	−11.7	144	CC1c2n[nH]c(-c3ccnn3C)c2CCN1C(=O)c1cccc(C(F)(F)F)c1Cl (centres unmarked) [Example 437, (2-chloro-3-(trifluoromethyl)phenyl)(7-methyl-3-(1-methyl-1H-pyrazol-5-yl)-4,5-dihydro-2H-pyrazolo[3,4-c]pyridin-6(7H)-yl)methanone]
